In patent publication US7569547B2, “Inhibiting furin with polybasic peptides” (Board of Supervisors of Louisiana State University and …, priority 2001, dated 2009):
Residues, ends and D or L forms follow the SMILES beside them. *: point of attachment. CH2Cl = ClC*

Legend:
PC1 [1] = target: T1, PC1 (Homo sapiens, UniProt P29120); conditions: literature; cited from earlier work
T1 sequence (P29120 111-753): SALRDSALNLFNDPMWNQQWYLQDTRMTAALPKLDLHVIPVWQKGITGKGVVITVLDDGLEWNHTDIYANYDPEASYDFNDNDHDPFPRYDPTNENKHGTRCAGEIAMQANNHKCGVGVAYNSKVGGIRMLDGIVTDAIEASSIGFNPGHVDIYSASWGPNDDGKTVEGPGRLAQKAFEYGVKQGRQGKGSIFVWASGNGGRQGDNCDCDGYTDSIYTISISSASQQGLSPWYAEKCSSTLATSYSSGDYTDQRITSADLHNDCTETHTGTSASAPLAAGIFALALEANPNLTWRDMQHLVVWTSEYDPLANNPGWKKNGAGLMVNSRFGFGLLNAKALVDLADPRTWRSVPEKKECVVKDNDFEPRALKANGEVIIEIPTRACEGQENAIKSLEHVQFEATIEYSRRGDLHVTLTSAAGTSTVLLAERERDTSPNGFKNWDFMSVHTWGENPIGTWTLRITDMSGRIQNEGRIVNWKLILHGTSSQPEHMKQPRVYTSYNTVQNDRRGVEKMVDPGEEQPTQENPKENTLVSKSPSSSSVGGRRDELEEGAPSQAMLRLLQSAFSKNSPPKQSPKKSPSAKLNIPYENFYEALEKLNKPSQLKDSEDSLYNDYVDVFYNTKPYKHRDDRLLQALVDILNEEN

PC2 = target: T2, PC2 (Mus musculus, UniProt P21661); assay: PC2 enzyme assay, hydrolysis of pERTKR-MCA at pH 5.0; type: biochemical; parameters: made in house
T2 sequence (P21661 109-637): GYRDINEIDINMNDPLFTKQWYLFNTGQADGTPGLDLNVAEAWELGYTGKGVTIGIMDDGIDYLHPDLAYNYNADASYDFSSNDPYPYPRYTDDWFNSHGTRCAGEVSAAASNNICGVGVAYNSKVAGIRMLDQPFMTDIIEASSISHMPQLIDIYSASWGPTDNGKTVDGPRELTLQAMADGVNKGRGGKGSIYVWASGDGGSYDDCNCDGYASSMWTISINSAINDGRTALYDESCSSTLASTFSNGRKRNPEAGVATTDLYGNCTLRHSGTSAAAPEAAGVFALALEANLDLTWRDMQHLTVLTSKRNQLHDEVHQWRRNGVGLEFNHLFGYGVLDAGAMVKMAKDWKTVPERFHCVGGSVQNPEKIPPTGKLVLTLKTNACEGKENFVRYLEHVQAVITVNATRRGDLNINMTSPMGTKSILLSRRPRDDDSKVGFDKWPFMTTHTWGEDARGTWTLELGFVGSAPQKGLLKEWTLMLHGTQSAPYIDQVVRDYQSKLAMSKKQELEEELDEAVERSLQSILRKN
Protocol: (§1) The proprotein convertases PC1 and PC2 were prepared by ion exchange chromatography as described in G. Frenette et al., Biochim. Biophys. Acta., vol. 1334, pp. 109-115 (1997).
(§2) Enzyme Assays and Hexapeptide Library Screening. Enzyme assays for PC1 and PC2 were performed at pH 5.0 using pERTKR-MCA (Peptides International Inc., Louisville, Ky.) as described in E. Apletalina et al., J. Biol. Chem., vol. 273, pp. 26589-26595 (1998). The assay for furin was performed using the same substrate at pH 7.0 in 100 mM HEPES, 5 mM CaCl2, 0.1% Brij 35. All assays were performed at 37° C. in a 96 well fluorometer (Labsystems) at an excitation wavelength of 380 nm with emission monitored at a wavelength of 460 nm. The total volume was 50 μL. Unless otherwise stated, the final substrate concentration for all assays was 200 μM. When used in a particular experiment, the inhibitory peptides were pre-incubated with enzyme for 30 min at room temperature prior to addition of substrate. All assays were performed in duplicate or triplicate.

recombinant mouse furin = target: T3, recombinant mouse furin (Mus musculus, UniProt P23188); assay: Furin enzyme assay, hydrolysis of pERTKR-MCA at pH 7.0; type: biochemical
T3 construct: truncated N-terminally to the transmembrane domain at His^711 using PCR; myc (C, cleaved yes); hexa-His (C, cleaved yes); made in house; host or cells: DG44 CHO cells, conditioned medium
T3 sequence (P23188 108-714 limits assumed): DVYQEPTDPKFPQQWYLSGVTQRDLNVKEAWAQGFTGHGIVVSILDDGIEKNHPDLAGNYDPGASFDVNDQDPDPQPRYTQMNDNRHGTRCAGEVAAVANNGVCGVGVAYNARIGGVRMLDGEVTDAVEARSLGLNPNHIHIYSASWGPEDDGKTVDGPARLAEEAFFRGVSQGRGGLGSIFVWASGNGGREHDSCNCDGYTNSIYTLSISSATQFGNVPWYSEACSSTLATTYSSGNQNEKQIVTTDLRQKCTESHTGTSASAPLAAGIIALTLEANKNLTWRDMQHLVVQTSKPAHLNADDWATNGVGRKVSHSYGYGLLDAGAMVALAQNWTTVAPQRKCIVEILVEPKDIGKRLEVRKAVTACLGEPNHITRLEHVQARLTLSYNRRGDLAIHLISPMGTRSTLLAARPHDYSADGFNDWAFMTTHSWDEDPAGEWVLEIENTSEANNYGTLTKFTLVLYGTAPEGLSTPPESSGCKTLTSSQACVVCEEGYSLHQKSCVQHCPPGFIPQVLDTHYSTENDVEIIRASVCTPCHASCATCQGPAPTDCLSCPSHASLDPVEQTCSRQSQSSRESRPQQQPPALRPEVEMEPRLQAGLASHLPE
From the text: Recombinant convertase preparation. The mouse furin clone was a kind gift from K. Nakayama (Fukuoka University School of Medicine, Fukuoka, Japan). The mouse furin cDNA was truncated N-terminally to the transmembrane domain at His^711 using PCR. This PCR product was then subcloned into pcDNA3.1 (−) myc-His (Invitrogen) at the Nhe1 and Xba1 restriction sites. Dihydrofolate-reductase-negative DG44 Chinese Hamster Ovary (CHO) cells (L. Chasin, Columbia University, New York, N.Y.) were transfected using Lipofectin (Life Technologies), and colonies were selected at 37° C. in 5% CO2 in α-MEM (lacking nucleosides) containing 10% well-dialyzed fetal bovine serum (Life Technologies). Conditioned media from colonies were screened using an enzyme assay (see below), and a high-expressing clone was selected. Overexpression of furin was achieved by increasing the methotrexate concentration from 5 nM to 50 μM in five- to ten-fold steps as described in I. Lindberg et al., Methods Neurosci., vol. 23, pp. 94-108 (1995). The amplified lines were tested for increased furin expression by enzyme assay. Once the 50 μM methotrexate level had been reached, cells were split at ratios of 1:6 twice a week. 100 mL of conditioned media (OptiMEM, Life Technologies) containing 100 μg/mL aprotinin (Miles Laboratories, Kankakee, Ill.) was collected from confluent roller bottles every 24 h. The medium was then centrifuged at low speed to remove cells, and the supernatant was stored at −80° C. until use.
Purification of furin: Conditioned medium was thawed, pooled, and diluted 1:3.5 with buffer A (20 mM HEPES, 0.1% Brij 35, 5 mM CaCl2, pH 7.4), and pumped at 40 mL/min through a Sartorius D100 anion exchange membrane. The membrane was washed with 40 mL of buffer A, followed by 40 mL of buffer A containing 50 mM NaCl, and finally by 40 mL of buffer A containing 200 mM NaCl. The fraction eluting with 200 mM NaCl was diluted 1:4 with buffer A and applied to a 1 mL Pharmacia Mono Q HR5/5 anion exchange column at a flow rate of 1 mL/min. Following a 10 mL wash with buffer A, furin was eluted by a linear increase of 0 to 500 mM NaCl in buffer A over 30 mL; and 2 mL fractions were collected. Fractions containing peak activity were pooled, and 200 μL aliquots were subjected to gel permeation chromatography using a Pharmacia Superose 12 column at a flow rate of 0.5 mL/min of buffer A containing 200 mM NaCl. Fractions were assayed for activity as described below; protein content was determined using the Bradford method. All purification steps were performed at 4° C.
as §2

PACE4 = target: T4, PACE4 (Rattus norvegicus, UniProt Q63415); assay: PACE4 enzyme assay, hydrolysis of pERTKR-MCA; type: biochemical
T4 construct: made in house; host or cells: stably transfected hEK-293 cells (gift of R. E. Mains), conditioned medium
T4 sequence (Q63415 133-937): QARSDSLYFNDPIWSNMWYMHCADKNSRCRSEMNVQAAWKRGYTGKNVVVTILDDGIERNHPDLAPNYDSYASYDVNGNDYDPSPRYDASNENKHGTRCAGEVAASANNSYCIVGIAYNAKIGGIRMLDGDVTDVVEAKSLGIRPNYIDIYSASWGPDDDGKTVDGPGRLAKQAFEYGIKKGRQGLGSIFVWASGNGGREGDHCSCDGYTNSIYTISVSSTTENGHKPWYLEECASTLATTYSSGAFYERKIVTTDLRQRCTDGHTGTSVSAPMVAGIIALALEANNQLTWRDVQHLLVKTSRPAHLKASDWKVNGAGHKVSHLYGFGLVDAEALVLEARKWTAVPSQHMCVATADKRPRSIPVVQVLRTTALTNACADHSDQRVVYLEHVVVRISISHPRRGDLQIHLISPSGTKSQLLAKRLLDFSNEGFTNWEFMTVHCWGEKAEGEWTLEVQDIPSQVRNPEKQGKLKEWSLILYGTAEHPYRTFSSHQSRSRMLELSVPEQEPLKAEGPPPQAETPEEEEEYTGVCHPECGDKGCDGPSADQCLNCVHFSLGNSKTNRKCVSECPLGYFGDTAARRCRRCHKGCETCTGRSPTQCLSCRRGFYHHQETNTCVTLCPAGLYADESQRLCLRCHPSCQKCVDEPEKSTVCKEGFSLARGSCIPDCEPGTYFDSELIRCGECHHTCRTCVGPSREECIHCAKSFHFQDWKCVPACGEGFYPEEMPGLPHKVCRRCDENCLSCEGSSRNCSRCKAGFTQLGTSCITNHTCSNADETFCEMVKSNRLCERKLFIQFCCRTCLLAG
Protocol: The proprotein convertase PACE4 was partially purified from an overnight-conditioned medium of stably transfected hEK-293 human embryonic kidney cells (a generous gift of R. E. Mains, Johns Hopkins University School of Medicine, Baltimore, Md.). Briefly, 100 mL of conditioned medium (OptiMEM containing 100 μg/mL aprotinin) was loaded onto an Econo-Pac Q (Bio-Rad) column at 4 mL/min, washed with 10 mL of buffer A, and then eluted with a linear gradient of buffer A containing 500 mM NaCl over 50 mL. The active fractions were then diluted 1:4 with buffer A prior to loading onto a Mono Q column (Pharmacia) at 1 mL/min. The PACE4 was eluted with a linear gradient of buffer A containing 500 mM NaCl over 10 mL. The resulting active fractions were then pooled and stored at −80° C. until use.
as §2

PC1 [2] = target: T5, PC1 (Mus musculus, UniProt P63239); assay: biochemical; type: biochemical
T5 construct: made in house
T5 sequence (P63239 111-753): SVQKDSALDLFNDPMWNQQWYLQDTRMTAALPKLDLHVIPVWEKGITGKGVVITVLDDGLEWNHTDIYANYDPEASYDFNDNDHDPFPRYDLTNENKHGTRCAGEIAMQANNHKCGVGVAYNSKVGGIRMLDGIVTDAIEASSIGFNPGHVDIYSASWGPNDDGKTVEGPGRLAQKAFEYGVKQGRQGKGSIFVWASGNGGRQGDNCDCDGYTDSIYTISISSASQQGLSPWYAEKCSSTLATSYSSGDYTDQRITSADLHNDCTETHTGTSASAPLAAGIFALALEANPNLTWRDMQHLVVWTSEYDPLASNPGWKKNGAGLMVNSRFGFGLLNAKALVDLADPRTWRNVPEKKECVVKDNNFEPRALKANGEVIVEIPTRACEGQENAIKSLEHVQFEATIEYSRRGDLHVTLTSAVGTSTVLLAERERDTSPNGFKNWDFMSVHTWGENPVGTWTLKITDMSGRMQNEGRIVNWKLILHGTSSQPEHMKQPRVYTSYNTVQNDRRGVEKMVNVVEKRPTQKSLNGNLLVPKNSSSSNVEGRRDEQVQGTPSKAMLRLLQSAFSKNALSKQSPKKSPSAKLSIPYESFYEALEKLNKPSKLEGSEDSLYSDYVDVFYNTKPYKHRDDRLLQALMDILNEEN
Protocol: as §1, §2

furin = furin (Homo sapiens, UniProt P09958); conditions: literature, cited from earlier work
Chain of furin (P09958 108-794): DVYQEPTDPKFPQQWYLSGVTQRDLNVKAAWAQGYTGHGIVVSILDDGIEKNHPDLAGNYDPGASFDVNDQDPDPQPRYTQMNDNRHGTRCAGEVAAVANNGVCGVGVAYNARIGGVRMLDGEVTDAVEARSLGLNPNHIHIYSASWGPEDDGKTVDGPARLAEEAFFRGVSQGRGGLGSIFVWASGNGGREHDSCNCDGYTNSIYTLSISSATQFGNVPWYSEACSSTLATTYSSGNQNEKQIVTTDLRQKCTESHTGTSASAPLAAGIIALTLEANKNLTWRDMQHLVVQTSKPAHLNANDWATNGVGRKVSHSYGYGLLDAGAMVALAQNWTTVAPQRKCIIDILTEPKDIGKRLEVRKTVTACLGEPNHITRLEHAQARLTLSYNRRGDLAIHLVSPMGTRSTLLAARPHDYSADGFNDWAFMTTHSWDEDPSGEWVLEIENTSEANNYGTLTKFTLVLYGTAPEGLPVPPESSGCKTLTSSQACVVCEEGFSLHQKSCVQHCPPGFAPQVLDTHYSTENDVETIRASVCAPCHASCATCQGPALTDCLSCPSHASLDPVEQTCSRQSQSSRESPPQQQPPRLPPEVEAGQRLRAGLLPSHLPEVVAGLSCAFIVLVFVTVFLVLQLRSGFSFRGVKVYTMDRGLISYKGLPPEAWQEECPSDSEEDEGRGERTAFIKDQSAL

CC(=O)N[C@@H](CC(C)C)C(=O)N[C@@H](CC(C)C)C(=O)N[C@@H](CCCNC(=N)N)C(=O)N[C@H](C(=O)N[C@@H](CCCCN)C(=O)N[C@@H](CCCNC(=N)N)C(N)=O)C(C)C [Ac-LLRVKR-NH2]
Ki / inhibition of PC1, in words (PC1 [1]): nanomolar inhibitor
Ki (PC2): 1000 ± 80 nM
Ki (recombinant mouse furin): 3400 ± 100 nM

N=C(N)NCCC[C@H](NC(=O)[C@H](CCCNC(=N)N)NC(=O)[C@H](CCCNC(=N)N)NC(=O)[C@H](CCCNC(=N)N)NC(=O)[C@H](CCCNC(=N)N)NC(=O)[C@H](CCCNC(=N)N)NC(=O)[C@@H](N)CCCNC(=N)N)C(=O)O [Hepta-L-arginine]
Ki (PACE4): 240 ± 45 nM
Ki (PC1 [2]): 5200 ± 1200 nM

N=C(N)NCCC[C@H](NC(=O)[C@H](CCCNC(=N)N)NC(=O)[C@H](CCCNC(=N)N)NC(=O)[C@H](CCCNC(=N)N)NC(=O)[C@H](CCCNC(=N)N)NC(=O)[C@H](CCCNC(=N)N)NC(=O)[C@H](CCCNC(=N)N)NC(=O)[C@@H](N)CCCNC(=N)N)C(=O)O [Octa-L-arginine]
Ki (PACE4): 150 ± 60 nM
Ki (PC1 [2]): 5100 ± 2000 nM

N=C(N)NCCC[C@H](NC(=O)[C@H](CCCNC(=N)N)NC(=O)[C@H](CCCNC(=N)N)NC(=O)[C@@H](N)CCCNC(=N)N)C(=O)O [Tetra-L-arginine] (H-RRRR-OH)
Ki (PACE4): > 200000 nM
inhibition of PACE4 (PACE4; mM concentrations): not found to inhibit even at mM concentrations
Ki (PC1 [2]): > 200000 nM
inhibition of PC1 (PC1 [2]; μM concentrations): not inhibited

Ac-YEKERSKR-CH2Cl (SMILES CC(=O)N[C@@H](Cc1ccc(O)cc1)C(=O)N[C@@H](CCC(=O)O)C(=O)N[C@@H](CCCCN)C(=O)N[C@@H](CCC(=O)O)C(=O)N[C@@H](CCCNC(=N)N)C(=O)N[C@@H](CO)C(=O)N[C@@H](CCCCN)C(=O)N[C@@H](CCCNC(=N)N)C(=O)CCl) [reference compound]
Ki / inhibition of PC1, in words (PC1 [1]): low nM
Ki against furin, in words (furin): low nM

H-RRRRR-OH [Penta-L-arginine]
Ki (PACE4): 980 ± 120 nM
Ki (PC1 [2]): 14000 ± 6100 nM

decanoyl-RVKR-CH2-AVG-NH2
Ki (furin; read-out: Ki against furin): 3.4 nM

α1-PDX: α1-antitrypsin variant with reactive site loop bioengineered to contain a minimal furin consensus sequence [reference compound]
inhibition of furin (furin): sub-nanomolar range
inhibition of furin (recombinant mouse furin; nanomolar α1-PDX concentrations, validation of enzyme preparation): strongly inhibited
